According to patent US9957264B2 (Merck Sharp & Dohme Corp., priority 2013, dated 2018):

Tests used:
[1] = target: JAK2 (recombinant purified GST-tagged catalytic domain) (Homo sapiens (Human), UniProt O60674); test: Jak Biochemical HTRF Assay (JAK2); conditions: [ATP] 8.5 μM
[2] = target: JAK1 (recombinant purified GST-tagged catalytic domain) (Homo sapiens (Human), UniProt P23458); test: Jak Biochemical HTRF Assay (JAK1); conditions: [ATP] 31.8 μM
Procedure, shortened: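 Phosphorylation of a common biotinylated peptide by each catalytic domain is measured by HTRF. The ATP-started reaction runs 120 min at room temperature before EDTA quench and detection.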

JAK2 (recombinant purified GST-tagged catalytic domain), sequence (O60674 849-1124): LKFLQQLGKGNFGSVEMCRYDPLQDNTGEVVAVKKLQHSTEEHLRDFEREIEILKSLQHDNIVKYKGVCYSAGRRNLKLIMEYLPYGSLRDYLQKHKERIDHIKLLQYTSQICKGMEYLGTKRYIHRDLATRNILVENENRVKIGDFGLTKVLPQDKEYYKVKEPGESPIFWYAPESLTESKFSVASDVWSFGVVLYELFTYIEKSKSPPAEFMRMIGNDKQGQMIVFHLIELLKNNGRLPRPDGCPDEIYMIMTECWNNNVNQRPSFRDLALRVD
JAK1 (recombinant purified GST-tagged catalytic domain), sequence (P23458 875-1153): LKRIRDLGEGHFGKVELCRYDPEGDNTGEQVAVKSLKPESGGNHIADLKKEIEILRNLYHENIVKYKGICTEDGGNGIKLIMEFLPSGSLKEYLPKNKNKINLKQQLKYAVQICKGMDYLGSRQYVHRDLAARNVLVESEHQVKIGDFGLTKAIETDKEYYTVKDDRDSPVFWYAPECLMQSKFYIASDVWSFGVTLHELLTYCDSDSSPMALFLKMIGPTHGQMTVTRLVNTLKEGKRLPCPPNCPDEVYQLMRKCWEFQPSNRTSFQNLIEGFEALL

IC50 [1] | IC50 [2] | SMILES
0.38 nM | 0.43 nM | Cc1cc(Nc2nn(C3(CC#N)CCN(C(=O)OC(C)(C)C)CC3)c3cc[nH]c(=O)c23)ccc1C(=O)N1CCC(F)(F)CC1 [Example 21-11, tert-butyl 4-(cyanomethyl)-4-(3-((4-(4,4-difluoropiperidine-1-carbonyl)-3-methylphenyl)amino)-4-oxo-4,5-dihydro-1H-pyrazolo[4,3-c]pyridin-1-yl)piperidine-1-carboxylate]
64.2 nM | 0.12 nM | N#CC[C@]1(n2nc(Nc3ccc(Cl)c(F)c3)c3c(=O)[nH]ccc32)CC[C@H](NC2CCCCC2)CC1 [Example 18-21, Trans 2-(1-(3-((4-chloro-3-fluorophenyl)amino)-4-oxo-4,5-dihydro-1H-pyrazolo[4,3-c]pyridin-1-yl)-4-(cyclohexylamino)cyclohexyl)acetonitrile]
> 1500 nM | 125 nM | COC1CN([C@H]2CC[C@@](CC#N)(n3nc(Nc4ccc(Cl)c(F)c4)c4c(=O)[nH]ccc43)CC2)C1 [Example 18-23, Cis 2-(1-(3-((4-chloro-3-fluorophenyl)amino)-4-oxo-4,5-dihydro-1H-pyrazolo[4,3-c]pyridin-1-yl)-4-(3-methoxyazetidin-1-yl)cyclohexyl)acetonitrile]
0.09 nM | 0.04 nM | CN1Cc2cc(Nc3nn([C@]4(CC#N)CC[C@@H](N5CC(F)C5)CC4)c4cc[nH]c(=O)c34)ccc2S1(=O)=O [Example 18-32]
0.55 nM | 0.2 nM | CS(=O)(=O)c1ccc(Nc2nn(C3(CC#N)CCN(c4ccc(C(F)(F)F)cn4)CC3)c3cc[nH]c(=O)c23)cc1 [Example 15-4, 2-(4-(3-((4-(methylsulfonyl)phenyl)amino)-4-oxo-4,5-dihydro-1H-pyrazolo[4,3-c]pyridin-1-yl)-1-(5 (trifluoromethyl)pyridin-2-yl)piperidin-4-yl)acetonitrile]
2.53 nM | 0.03 nM | COC1CN([C@H]2CC[C@](CC#N)(n3nc(Nc4ccc(Cl)cc4)c4c(=O)[nH]ccc43)CC2)C1 [Example 18-8, Trans 2-(1-(3-((4-chlorophenyl)amino)-4-oxo-4,5-dihydro-1H-pyrazolo[4,3-c]pyridin-1-yl)-4-(3-methoxyazetidin-1-yl)cyclohexyl)acetonitrile]
102 nM | 1.14 nM | COC1CN([C@H]2CC[C@@](CC#N)(n3nc(Nc4ccc(Cl)cc4)c4c(=O)[nH]ccc43)CC2)C1 [Example 18-9, Cis 2-(1-(3-((4-chlorophenyl)amino)-4-oxo-4,5-dihydro-1H-pyrazolo[4,3-c]pyridin-1-yl)-4-(3-methoxyazetidin-1-yl)cyclohexyl)acetonitrile]
9.07 nM | 2.23 nM | N#CC[C@]1(n2nc(Nc3ccc(S(=O)(=O)C(F)F)cc3)c3c(=O)[nH]ccc32)CC[C@@H](N2CC(F)C2)CC1 [Example 18-27, Cis 2-(1-(3-((4-((difluoromethyl)sulfonyl)phenyl)amino)-4-oxo-4,5-dihydro-1H-pyrazolo[4,3-c]pyridin-1-yl)-4-(3-fluoroazetidin-1-yl)cyclohexyl)acetonitrile]
3.06 nM | 2.77 nM | Cc1cc(Nc2nn(C3(CC#N)CCN(c4cc(C(F)(F)F)ccn4)CC3)c3cc[nH]c(=O)c23)ccc1C(=O)N1CCSCC1 [Example 16-1, 2-(4-(3-(3-methyl-4-(thiomorpholine-4-carbonyl)phenylamino)-4-oxo-4,5-dihydropyrazolo[4,3-c]pyridin-1-yl)-1-(4-(trifluoromethyl)pyridin-2-yl)piperidin-4-yl)acetonitrile]
0.04 nM | 0.04 nM | CS(=O)(=O)c1ccc(Nc2nn(C3(CC#N)CCN(c4ccc(C#N)cn4)CC3)c3cc[nH]c(=O)c23)cc1 [Example 15-2, 6-(4-(cyanomethyl)-4-(3-((4(methylsulfonyl)phenyl)amino)-4-oxo-4,5-dihydro-1H-pyrazolo[4,3-c]pyridin-1-yl)piperidin-1-yl)nicotinonitrile]
0.88 nM | 0.35 nM | Cc1cc(Nc2nn([C@]3(CC#N)CCCOC3)c3cc[nH]c(=O)c23)ccc1C(=O)N1CCC(C)(O)CC1 [Example 20-4, (S)-2-(3-(3-((4-(4-hydroxy-4-methylpiperidine-1-carbonyl)-3-methylphenyl)amino)-4-oxo-4,5-dihydro-1H-pyrazolo[4,3-c]pyridin-1-yl)tetrahydro-2H-pyran-3-yl)acetonitrile]
1.32 nM | 0.14 nM | CN(C)S(=O)(=O)c1ccc(Nc2nn(C3(CC#N)CCN(C(=O)CC(C)(C)C)CC3)c3cc[nH]c(=O)c23)cc1 [Example 9-23, 4-({1-[4-(cyanomethyl)-1-(3,3-dimethylbutanoyl)piperidin-4-yl]-4-oxo-4,5-dihydro-1H-pyrazolo[4,3-c]pyridin-3-yl}amino)-N,N-dimethylbenzenesulfonamide]

The next lines start with the molecule.

SMILES | IC50 [1] | IC50 [2]
CN(C)C(c1ccc(Nc2nn([C@]3(CC#N)CC[C@@H](C(=O)OC(C)(C)C)OC3)c3cc[nH]c(=O)c23)cc1)C(F)(F)F (single isomer, unassigned) [Example 5-213, (2S,5S)-tert-butyl 5-(cyanomethyl)-5-(3-((4-((R or S)-1-(dimethylamino)-2,2,2-trifluoroethyl)phenyl)amino)-4-oxo-4,5-dihydro-1H-pyrazolo[4,3-c]pyridin-1-yl)tetrahydro-2H-pyran-2-carboxylate] | 0.29 nM | 0.19 nM
COC(=O)N1CCC(CC#N)(n2nc(Nc3ccc(C(F)(F)F)cc3)c3c(=O)[nH]ccc32)CC1 [Example 5-147, methyl 4-(cyanomethyl)-4-(4-oxo-3-((4-(trifluoromethyl)phenyl)amino)-4,5-dihydro-1H-pyrazolo[4,3-c]pyridin-1-yl)piperidine-1-carboxylate] | 2.95 nM | 0.32 nM
CC(C)(C)N1Cc2cc(Nc3nn(C4(CC#N)CCCCC4)c4cc[nH]c(=O)c34)ccc2S1(=O)=O [Example 5-80, 2-(1-(3-((2-(tert-butyl)-1,1-dioxido-2,3-dihydrobenzo[d]isothiazol-5-yl)amino)-4-oxo-4,5-dihydro-1H-pyrazolo[4,3-c]pyridin-1-yl)cyclohexyl)acetonitrile] | 1.21 nM | 0.08 nM
C[C@H]1CN(c2ccc3cc(Nc4nn([C@]5(CC#N)CC[C@@H](C(=O)OC(C)(C)C)OC5)c5cc[nH]c(=O)c45)ccc3n2)CCO1 [Example 5-228, (2S,5S)-tert-butyl 5-(cyanomethyl)-5-(3-((2-((S)-2-methylmorpholino)quinolin-6-yl)amino)-4-oxo-4,5-dihydro-1H-pyrazolo[4,3-c]pyridin-1-yl)tetrahydro-2H-pyran-2-carboxylate] | 1.06 nM | 0.25 nM
CN(C)S(=O)(=O)c1ccc(Nc2nn(C3(CC#N)CCN(C(=O)OCC(F)(F)F)CC3)c3cc[nH]c(=O)c23)cc1 [Example 12, 2,2,2-trifluoroethyl 4-(cyanomethyl)-4-(3-((4-(N,N-dimethylsulfamoyl)phenyl)amino)-4-oxo-4,5-dihydro-1H-pyrazolo[4,3-c]pyridin-1-yl)piperidine-1-carboxylate] | 0.24 nM | 0.11 nM
CC(C)(C)OC(=O)N1CC(CC#N)(n2nc(Nc3ccc(S(=O)(=O)C(F)(F)F)cc3)c3c(=O)[nH]ccc32)C1 [Example 5-47, tert-butyl 3-(cyanomethyl)-3-[4-oxo-3-({4-[(trifluoromethyl)sulfonyl]phenyl}amino)-4,5-dihydro-1H-pyrazolo[4,3-c]pyridin-1-yl]azetidine-1-carboxylate] | 108 nM | 7.27 nM
CC1CCN1S(=O)(=O)c1ccc(Nc2nn([C@]3(CC#N)CCCOC3)c3cc[nH]c(=O)c23)cc1 (single isomer, unassigned) [Example 5-108, [(3S)-3-{3-[(4-{[(2R or 2S)-2-methylazetidin-1-yl]sulfonyl}phenyl)amino]-4-oxo-4,5-dihydro-1H-pyrazolo[4,3-c]pyridin-1-yl}tetrahydro-2H-pyran-3-yl]acetonitrile] | 0.23 nM | 0.12 nM
COC(=O)N1CCC(CC#N)(n2nc(Nc3ccc(F)cc3)c3c(=O)[nH]ccc32)CC1 [Example 5-146, methyl 4-(cyanomethyl)-4-(3-((4-fluorophenyl)amino)-4-oxo-4,5-dihydro-1H-pyrazolo[4,3-c]pyridin-1-yl)piperidine-1-carboxylate] | 2 nM | 0.3 nM
CC(C)(C)OC(=O)[C@@H]1CC[C@@](CC#N)(n2nc(Nc3ccc(Cn4nccn4)cc3)c3c(=O)[nH]ccc32)CO1 [Example 5-97, (2S,5S)-tert-butyl 5-(3-((4-((2H-1,2,3-triazol-2-yl)methyl)phenyl)amino)-4-oxo-4,5-dihydro-1H-pyrazolo[4,3-c]pyridin-1-yl)-5-(cyanomethyl) tetrahydro-2H-pyran-2-carboxylate] | 0.14 nM | 0.09 nM
CN(C)C(=O)c1ccc2cc(Nc3nn([C@]4(CC#N)CC[C@@H](C(=O)OC(C)(C)C)OC4)c4cc[nH]c(=O)c34)ccc2n1 [Example 5-238, (2S,5S)-tert-butyl 5-(cyanomethyl)-5-(3-((2-(dimethylcarbamoyl)quinolin-6-yl)amino)-4-oxo-4,5-dihydro-1H-pyrazolo[4,3-c]pyridin-1-yl)tetrahydro-2H-pyran-2-carboxylate] | 0.48 nM | 0.11 nM
COC(=O)N1CCC(CC#N)(n2nc(Nc3ccc(S(=O)(=O)C(C)C)cc3)c3c(=O)[nH]ccc32)CC1 [Example 5-149, methyl 4-(cyanomethyl)-4-(3-((4-(isopropylsulfonyl)phenyl)amino)-4-oxo-4,5-dihydro-1H-pyrazolo[4,3-c]pyridin-1-yl)piperidine-1-carboxylate] | 0.23 nM | 0.12 nM
Cc1cc(Nc2nn([C@]3(CC#N)CC[C@@H](C(=O)OC(C)(C)C)OC3)c3cc[nH]c(=O)c23)ccc1C(=O)N1CCSC1 [Example 5-155, (2S,5S)-tert-butyl 5-(cyanomethyl)-5-(3-((3-methyl-4-(thiazolidine-3-carbonyl)phenyl)amino)-4-oxo-4,5-dihydro-1H-pyrazolo[4,3-c]pyridin-1-yl)tetrahydro-2H-pyran-2-carboxylate] | 0.39 nM | 0.18 nM
